Laboratory results published in patent publication US7973047B2, “Beta-Secretase modulators and methods of use” (Amgen Inc., priority 2010, dated 2011).
Like-named read-outs stand apart in the source and are kept apart here.

Test system: Aβ40 in conditioned medium of cells stably expressing Amyloid Precursor Protein (APP)
Assay: BACE cell-based assay: Aβ40 in conditioned medium by sandwich ELISA
Details: unit inferred, read-out: Cell Assay
Description: The cell-based assay measures inhibition or reduction of Aβ40 in conditioned medium of test compound treated cells expressing amyloid precursor protein.
Cells stably expressing Amyloid Precursor Protein (APP) were plated at a density of 40K cells/well in 96 well plates (Costar). The cells were cultivated for 24 hours at 37° C. and 5% CO2 in DMEM supplemented with 10% FBS. The test compounds were then added to cells in 10-point dose response concentrations with the starting concentration being either 100 μM or 10 μM. The compounds were diluted from stock solutions in DMSO and the final DMSO concentration of the test compounds on cells was 0.1%. After 24 h of incubation with the test compounds the supernatant conditioned media was collected and the Aβ40 levels were determined using a sandwich ELISA. The ICso of the compound was calculated from the percent of control or percent inhibition of Aβ40 as a function of the concentration of the test compound.
The sandwich ELISA to detect Aβ40 was performed in 96 well microtiter plates, which were pre-treated with goat anti-rabbit IgG (Pierce). The capture and detecting antibody pair that were used to detect Aβ40 from cell supernatants were affinity purified pAb40 (Biosource) and biotinylated 6E10 (Signet Labs Inc.), respectively. The optimal concentration for the pAb40 antibody was 3 μg/ml in Superblock/TBS (Pierce) that was supplemented with 0.05% Tween 20 (Sigma).
Cellular supernatants were incubated with the capture antibody for 3 h at 4° C., followed by 3 wash steps in TBS-tween (0.05%). The detecting antibody incubation was for 2 h at 4° C., again followed by the wash steps as described previously. The final readout of the ELISA is Time-Resolved Fluorescence (counts per minute) using Delfia reagents Streptavidin-Europium and Enhancement solutions (Perkin Elmer) and the Victor 2 multilabel counter (Perkin Elmer).

[1] = cell based assay data of Table 4

IC50 [1] [µM]	IC50 (cell based assay data, Table 4) [µM]	Structure (SMILES)
–	0.197	CC(=O)N[C@@H](Cc1ccccc1Br)[C@H](O)CN[C@H]1CC2(CCC2)Oc2ncc(CC(C)(C)C)cc21 [compound 810]
–	0.236	CC(=O)N[C@@H](Cc1ccc(F)cc1)[C@H](O)CN[C@H]1CC2(CCC2)Oc2ncc(CC(C)(C)CO)cc21 [compound 878]
–	0.212	CC(=O)N[C@@H](Cc1cc(F)cc(F)c1)[C@H](O)CN[C@H]1CC2(CCC2)Oc2c1cc(Cl)cc2-n1cnc2ccccc21 [compound 775]
–	0.126	CC(=O)N[C@@H](Cc1ccc(F)cc1)[C@H](O)CN[C@H]1CC(C)(C)Oc2c1cc(CC(C)(C)C)nc2Cl [compound 761]
–	0.0147	CC(=O)N[C@@H](Cc1ccc(F)c(Cl)c1)[C@H](O)CN[C@H]1CC2(CCC2)Oc2ncc(CC(C)(C)F)cc21 [compound 836]
–	0.00233	CC(=O)N[C@@H](Cc1cc(Cl)ccc1F)[C@H](O)CN[C@H]1CC2(CCC2)Oc2ncc(CC(C)(C)C)cc21 [compound 867]
–	0.286	CCC#CC[C@H](NC(C)=O)[C@H](O)CN[C@H]1CC2(CCC2)Oc2ncc(CC(C)(C)C)cc21 [compound 742]
–	0.00572	Cc1nccn1CC(=O)N[C@@H](Cc1ccccc1)[C@H](O)CN[C@H]1CC2(CCC2)Oc2ccc(CC(C)(C)C)cc21 [compound 744, N-((1S,2R)-3-(((4S)-6-(2,2-dimethylpropyl)-3,4-dihydrospiro[chromene-2,1′-cyclobutan]-4-yl)amino)-2-hydroxy-1-(phenylmethyl)propyl)-2-(1H-2-methyl-imidazol-1-yl) acetamide]
–	0.2	CC(=O)N[C@@H](Cc1cc(F)cc(N(C)C)c1)[C@H](O)CN[C@H]1CC(C)(C)Oc2c1cc(CC(C)(C)C)nc2N(C)C [compound 756]
–	0.00126	CC(=O)N[C@@H](Cc1cccc(C#N)c1)[C@H](O)CN[C@H]1CC2(CCC2)Oc2ncc(CC(C)C)cc21 [compound 849]
–	3.26	CCCOC[C@H](NC(C)=O)[C@H](O)CN[C@H]1CC2(CCC2)Oc2ccc(CC)cc21 [compound 732]
–	0.193	C=CC[C@H](NC(C)=O)[C@H](O)CN[C@H]1CC2(CCC2)Oc2ncc(CC(C)(C)F)cc21 [compound 741, N-((1S)-1-((1R)-2-(((4′S)-6′-(2-fluoro-2-methylpropyl)-3′,4′-dihydrospiro[cyclobutane-1,2′-pyrano[2,3-b]pyridin]-4′-yl)amino)-1-hydroxyethyl)-3-buten-1-yl)acetamide]
–	0.981	CC(=O)N[C@@H](Cc1ccccc1)[C@H](O)CN[C@H]1CC2(CCC2)Oc2ccc(NC(C)(C)C)cc21 [compound 772]
–	0.0465	CC(=O)N[C@@H](CC1CC1)[C@H](O)CN[C@H]1CC2(CCC2)Oc2ncc(CC(C)(C)C)cc21 [compound 722, N-((1S,2R)-1-(cyclopropylmethyl)-3-(((4′S)-6′-(2,2-dimethylpropyl)-3′,4′-dihydrospiro[cyclobutane-1,2′-pyrano[2,3-b]pyridin]-4′-yl)amino)-2-hydroxypropyl)acetamide]
–	0.0158	CC(=O)N[C@@H](Cc1ccc(F)cc1)[C@H](O)CN[C@H]1CC2(CC(C)C2)Oc2ncc(CC(C)(C)C)cc21 (stereo partly drawn) [compound 766, N-((1S,2R)-3-(((4′S)-6′-(2,2-dimethylpropyl)-3-methyl-3′,4′-dihydrospiro[cyclobutane-1,2′-pyrano[2,3-b]pyridin]-4′-yl)amino)-1-((4-fluorophenyl)methyl)-2-hydroxypropyl)acetamide]

More lines, now with the values behind:

Structure (SMILES)	IC50 [1] [µM]	IC50 (cell based assay data, Table 4) [µM]
CC(=O)N[C@@H](Cc1cccc(C#N)c1)[C@H](O)CN[C@H]1CC2(CCC2)Oc2ncc(CC(C)(C)C)cc21 [compound 540, N-((1S,2R)-1-((3-cyanophenyl)methyl)-3-(((4′S)-6′-(2,2-dimethylpropyl)-3′,4′-dihydrospiro[cyclobutane-1,2′-pyrano[2,3-b]pyridin]-4′-yl)amino)-2-hydroxypropyl)acetamide]	0.00203	–
CC(=O)N[C@@H](Cc1cccc(C(F)(F)F)c1)[C@H](O)CN[C@H]1CC2(CCC2)Oc2ncc(CC(C)(C)C)cc21 [compound 718]	–	0.00398
CC(=O)N[C@@H](Cc1ccc(Cl)cc1)[C@H](O)CN[C@H]1C[C@]2(CCOC2)Oc2ncc(CC(C)(C)C)cc21 [compound 670, N-((1S,2R)-1-((4-chlorophenyl)methyl)-3-(((3R,4′S)-6′-(2,2-dimethylpropyl)-3′,4,4′,5-tetrahydrospiro[furan-3,2′-pyrano[2,3-b]pyridin]-4′-yl)amino)-2-hydroxypropyl)acetamide]	0.0518	–
CC(=O)N[C@@H](Cc1ccc(F)cc1)[C@H](O)CN[C@H]1CC2(CCC2)Oc2ncc(C(=O)C(C)(C)C)cc21 [compound 697]	0.277	–
CC(=O)N[C@@H](Cc1cc(F)cc(F)c1)[C@H](O)CN[C@H]1CC2(CCC2)Oc2ccc(-c3ncco3)cc21 [compound 544]	0.631	–
CC(=O)N[C@@H](Cc1ccc(Cl)cc1)[C@H](O)CN[C@H]1CC2(CCC2)Oc2c1cc(CC(C)(C)C)nc2N(C)C [compound 600]	0.634	–
CC(=O)N[C@@H](Cc1cccc(Cl)c1)[C@H](O)CN[C@H]1CC2(CCC2)Oc2ncc(CC(C)(C)C)cc21 [compound 702]	0.00124	–
CC(=O)N[C@@H](Cc1ccc(F)cc1)[C@H](O)CN[C@H]1CC2(CCC2)Oc2ncc(CC(C)(C)C)cc21 [compound 568]	0.00813	–
CC(=O)N[C@@H](Cc1ccc(Cl)cc1)[C@H](O)CN[C@H]1C[C@@]2(CCOC2)Oc2ncc(CC(C)(C)C)cc21 [compound 669]	≥ 10	–
CC(=O)N[C@@H](Cc1ccc(F)cc1)[C@H](O)CN[C@H]1CC2(CCC2)Oc2c1cc(CC(C)(C)C)nc2N(C)C [compound 588]	0.0523	–
CC[C@H](C)Cc1cnc2c(c1)[C@@H](NC[C@@H](O)[C@H](Cc1ccc(F)cc1)NC(C)=O)CC1(CCC1)O2 [compound 695]	0.0434	–
COc1ccc(C[C@H](NC(C)=O)[C@@H](O)CN[C@H]2CC3(CCC3)Oc3ncc(CC(C)(C)C)cc32)cc1F [compound 666]	0.162	–
CCNc1nc(CC(C)(C)C)cc2c1OC1(CCC1)C[C@@H]2NC[C@@H](O)[C@H](Cc1cccc(F)c1)NC(C)=O [compound 591]	0.00298	–
CC(=O)N[C@@H](Cc1ccc(F)cc1)[C@H](O)CN[C@@H]1CC2(CCC2)Oc2c1cc(CC(C)(C)C)nc2OC(C)C [compound 607]	0.0803	–
CC(=O)N[C@@H](Cc1cccc(F)c1)[C@H](O)CN[C@H]1CC2(CCCC2)Oc2ncc(CC(C)(C)C)cc21 [compound 549]	0.00693	–
CCCc1nc(C[C@H](NC(C)=O)[C@H](O)CN[C@H]2CC3(CCC3)Oc3ncc(CC(C)(C)C)cc32)cs1 [compound 636, N-((1S,2R)-3-(((4′S)-6′-(2,2-dimethylpropyl)-3′,4′-dihydrospiro[cyclobutane-1,2′-pyrano[2,3-b]pyridin]-4′-yl)amino)-2-hydroxy-1-((2-propyl-1,3-thiazol-4-yl)methyl)propyl)acetamide]	0.0146	–
CC(=O)N[C@@H](Cc1ccc(F)cc1)[C@H](O)CN[C@@H]1CC2(CCCC2)C(=O)c2ccc(CC(C)(C)C)cc21 [compound 564, N-((1S,2R)-3-(((4′R)-6′-(2,2-dimethylpropyl)-1′-oxo-3′,4′-dihydro-1′H-spiro[cyclopentane-1,2′-naphthalen]-4′-yl)amino)-1-((4-fluorophenyl)methyl)-2-hydroxypropyl)acetamide]	0.569	–
